Data on two molecules can be found in patent publication US4190672A, “Method and compositions of treating Parkinsonisms with levodopa and 3',4'-dihydroxy-2-methylisopropiophenone” (priority 1978, dated 1980).

The structures appear in SMILES notation. Like-named read-outs stand apart in the source and are kept apart here.

Data set [1] relates to COMT. The experiment in a line: Effect of dose of DHMPP on plasma and brain OMD, levodopa and dopamine after levodopa treatment. It is filed as in vivo, Male Sprague-Dawley rats. As to the method: (§1) Male Sprague-Dawley rats weighing 200-300 g are fasted for 17 hours prior to the experiments. They are kept for at least two days on a day-light, night-dark cycle, and the experiments are conducted between 0900 and 1400 hours on the day following the fast. All injections are given intraperitoneally, and all drugs are given as a suspension in 1% methyl ceullulose.
(§2) 2. Effect of dose of DHMPP: Absolute and levodopa control rats receive the same treatment as described above. Experimental rats were pretreated with DHMPP (50, 100, 150, 200 or 250 mg/kg) 30 min before receiving the injection of levodopa, 250 mg/kg. All animals are decapitated 90 min after receiving levodopa. Blood and brain are collected.
3. Analytical procedures: Brains are chilled on ice, homogenized in 3 volumes ice-cold 0.4 M perchloric acid containing 0.025% ascorbic acid, and centrifuged at 15,000 rpm for 20 min. The supernatants are collected and the above procedure is repeated on the residue. The combined supernatants are stored at -20° C. Blood samples are collected in heparinized tubes immediately after decapitation, chilled, and centrifuged, and the plasma is pipetted off. Plasma proteins are precipitated in 4 volumes ice-cold 0.4 M perchloric acid solution and centrifuged at 10,000 rpm for 15 min. Protein-free supernatants are decanted and stored at -20° C. All samples are chromatographed within two days of the experiment.
Column chromatography of the sample extracts is carried out on a strong cation resin (Bio Rad AG 50-X8) according to the method of Prased, A. L. N., et al., Trans. Am. Soc. Neurochem. 4:105 (1973) Homovanillic acid (HVA) remains in the combined effluent and subsequent water wash; these eluates undergo solvent extractions and are assayed by the automated method of Prasad, A. L. N., et al., Biochem. Med. 9:136 (1974). Levodopa and OMD are eluted together and assayed according to the method of Fahn, S., et al., Anal. Biochem. 46:557 (1972). After dopamine is eluted, it is measured by the automated method of Atack, C. V., Brit. J. Pharmacol. All eluates are assayed within 10 days of chromatography; they are stored at -20° C., thawed and mixed thoroughly before assay.

Data set [2] concerns COMT. The experiment in a line: Effect of DHMPP with time on plasma and brain levodopa, OMD and dopamine after levodopa administration. It counts as in vivo, Male Sprague-Dawley rats. As to the method: (§3) Male Sprague-Dawley rats weighing 200-300 g are fasted for 17 hours prior to the experiments. They are kept for at least two days on a day-light, night-dark cycle, and the experiments are conducted between 0900 and 1400 hours on the day following the fast. All injections are given intraperitoneally, and all drugs are given as a suspension in 1% methyl ceullulose. 1. Effect of DHMPP with time: Absolute control rats receive no injections. Levodopa controls are given levodopa, 250 mg/kg. […] Blood and brain are collected. […] Analytical procedures: […] The supernatants are collected and the above procedure is repeated on the residue. The combined supernatants are stored at -20° C. Blood samples are collected in heparinized tubes immediately after decapitation, chilled, and centrifuged, and the plasma is pipetted off. Plasma proteins are precipitated in 4 volumes ice-cold 0.4 M perchloric acid solution and centrifuged at 10,000 rpm for 15 min. Protein-free supernatants are decanted and stored at -20° C. […] Am. Soc. Neurochem. 4:105 (1973) Homovanillic acid (HVA) remains in the combined effluent and subsequent water wash; these eluates undergo solvent extractions and are assayed by the automated method of […]., et al., Biochem. […] Levodopa and OMD are eluted together and assayed according to the method of Fahn, S., et al., Anal. Biochem. 46:557 (1972). After dopamine is eluted, it is measured by the automated method of […]., Brit. J. Pharmacol. All eluates are assayed within 10 days of chromatography; they are stored at -20° C., thawed and mixed thoroughly before assay.

For data set [3] the following is noted: crystalline solid; cited from earlier work.
The nature of data set [4]: Behavioral responses and deaths in rats. It counts as in vivo, Male Sprague-Dawley rats. As to the method:
as §1
1. Effect of DHMPP with time: Absolute control rats receive no injections. Levodopa controls are given levodopa, 250 mg/kg. Experimental animals are pretreated with DHMPP, 250 mg/kg, 30 min before receiving a combined injection of DHMPP and levodopa, each 250 mg/kg. Animals are decapitated at 30 min time intervals between 0 and 120 min after levodopa administration. Blood and brain are collected.
as §2

In data set [5] the test system is catechol-O-methyl transferase (COMT). The conditions noted are these: cited from earlier work.
Data set [6] in a line: Effect of DHMPP with time on plasma and brain levodopa, OMD and dopamine after levodopa administration. It is filed as in vivo, Male Sprague-Dawley rats. The following applies: rat, ip, 250 mg/kg. The protocol: as §3
The mark [7] stands for this setting: all doses of DHMPP, 90 min after levodopa.
[8] abbreviates: DHMPP 250 mg/kg pretreatment plus DHMPP and levodopa 250 mg/kg each, i.p.

On to `CC(C)C(=O)c1ccc(O)c(O)c1` [DHMPP, 3',4'-Dihydroxy-2-methyl-propiophenone], for which, in data set [1] (DHMPP 100 mg/kg i.p., 90 min after levodopa), the “inhibition of OMD accumulation in plasma relative to levodopa controls” value is recorded as “completely inhibits”. Moreover, the “plasma OMD accumulation” value in data set [1] (DHMPP 100 mg/kg or greater i.p., 90 min after levodopa) is “completely blocked”. For the same molecule, the plasma levodopa levels entry in data set [1] (DHMPP 50-250 mg/kg i.p., 90 min after levodopa 250 mg/kg) is given as “not affected”. The “accumulation of OMD in brain” value in data set [1] (DHMPP 100 and 200 mg/kg i.p., 90 min after levodopa) is recorded as “inhibited”. Besides, the inhibition at 100 mg/kg in data set [1] (Rattus norvegicus, ip, 1.5 h, DHMPP 100 mg/kg i.p., 90 min after levodopa, read-out: inhibition of OMD accumulation in brain relative to levodopa controls) was 80%. In data set [1] (setting [7]), the “dopamine levels in brain” value is reported as “not significantly altered” and the “levodopa levels in brain” value is listed as “not significantly altered”. In data set [2] (setting [8]), the “increase in plasma levodopa levels on inhibition of COMT” value is recorded as “three-fold” and the “prevention of measurable accumulation of OMD in plasma” value was “completely prevents measurable accumulation of OMD in plasma”. Further, the “increase in brain levodopa concentration with COMT inhibition” value in data set [2] (DHMPP plus levodopa i.p., 30 min time point) was “more than two-fold”. Besides, in data set [2] (DHMPP plus levodopa i.p., at 60 min), the “increase in brain dopamine level on inhibition of COMT” value is reported as “more than two-fold”. In data set [2] (DHMPP plus levodopa, i.p.), the “accumulation of brain OMD on DHMPP treatment” value is on record as “blocked”. Besides, the “levodopa and dopamine concentrations in brain (conclusion)” value in data set [2] (animals treated with DHMPP and levodopa) is “striking enhancement and prolongation of levodopa and dopamine concentrations in the brain”. For the same molecule, in data set [2] (high dosage, acute levodopa administration), the “accumulation of 3-O-methylated derivatives of catechols in plasma and brain (conclusion)” value was “does inhibit the accumulation of 3-O-methylated derivatives of catechols in plasma and brain”. Moreover, the water solubility result in data set [3] is on record as “water-soluble”. For the same molecule, the “degree of lethargy versus dosage of DHMPP” value in data set [4] (DHMPP 50-250 mg/kg i.p.) is reported as “related to the dosage of DHMPP employed”. Moreover, in data set [4] (DHMPP i.p., within 10 min of injection), the “motor activity and behavioral responses to DHMPP” value was “striking reduction in motor activity within 10 min of injection, including prostration, lying on one side, rapid breathing and loss of responsiveness to handling and other stimuli”. Moreover, the “piloerection in animals receiving both inhibitor and levodopa” value in data set [4] (DHMPP plus levodopa, i.p.) was “Little piloerection is apparent”. Besides, in data set [4] (rat, in vivo), the “deaths at lower doses” value was “Deaths do not occur”. Moreover, the “deaths, dose-response experiment” value in data set [4] (rat, in vivo, ip, 250 mg/kg) was “two of six”. Also, in data set [5], the “inhibition of COMT (literature)” value is “inhibition of the enzyme catechol-O-methyl transferase (COMT)”.

With `N[C@@H](Cc1ccc(O)c(O)c1)C(=O)O` [levodopa, 3-(3,4-dihydroxyphenyl)-L-alanine], the “OMD accumulation in plasma after levodopa administration” value in data set [2] (levodopa 250 mg/kg i.p.) is “progressively accumulates in plasma”. For the same molecule, the “time course of brain OMD levels” value in data set [2] (rat, in vivo) was “rise slowly for the first 30 min in levodopa and absolute control animals and then increase more rapidly and linearly”. For the same molecule, in data set [2] (rat, in vivo), the “time of maximal dopamine concentration in brain” value is 30 to 60 min. The “brain OMD level” value in data set [2] (rat, in vivo, 240 min) was found to be 18 nmol/g. Besides, the Tmax was 30 min in data set [6] (in vivo, time of peak levodopa in brain); 90 min in data set [6] (plasma, DHMPP plus levodopa i.p., after levodopa administration, read-out: time of peak plasma levodopa level with inhibition of COMT (converted)); 30 min in data set [6] (plasma, levodopa 250 mg/kg i.p., alone or with DHMPP, after levodopa injection, read-out: time of maximal plasma levels of levodopa (converted)). In data set [4] (levodopa 250 mg/kg i.p. after DHMPP), the “effect of levodopa on lethargic symptoms induced by DHMPP” value was “markedly attenuates all lethargic symptoms induced by DHMPP, but does not abolish them”. The “behavioral responses to levodopa” value in data set [4] (levodopa 250 mg/kg i.p., all rats treated with levodopa) is “increased locomotor activity, erection of hair (piloerection), abnormal protrusion of the eyeball (exophthalmos) and other signs of sympathetic stimulation”.
